Test results from patent publication US9463256B2, “Pretargeting kit, method and agents used therein” (KONINKLIJKE PHILIPS N.V., priority 2010, dated 2016).

Assays:
[1] = test system: LS174T tumor model; assay: Biodistribution experiments in tumor bearing mice pretargeted with CC49-TCO constructs; type: in vivo, Nude female Balb/C mice; details: 3 h after injection
Description: (§1) LS174T tumor model. The human colon cancer cell line LS174T was obtained from the ATCC and maintained in Eagle's minimal essential medium (Sigma) supplemented with 10% heat inactivated fetal calf serum (Gibco), penicillin (100 U/mL), streptomycin (100 μg/mL) and 2 mM Glutamax. Nude female Balb/C mice (20-25 g body weight, Charles River Laboratories) were inoculated subcutaneously with 5×10^6 cells in 100 μL sterile PBS.
Dual isotope biodistribution experiments were performed by injecting tumor bearing mice (n=3) intravenously with ^125I-labeled CC49-TCO constructs with and without PEG10 spacer (100 μg/100 μL per mouse, ca. […] 0.8 MBq). Three hours after tetrazine administration, the animals were anesthetized with isoflurane and sacrificed by cervical dislocation. Blood was withdrawn by heart puncture and organs and tissues of interest were harvested, blotted dry and weighed. The radioactivity of the samples was measured in a γ-counter along with standards to determine the % ID/gram. The energy windows were set to 10-80 keV and 100-510 keV for ^125I and ^111In, respectively.

[2] = test system: LS174T tumor model; assay: SPECT/CT imaging of tumor-bearing mice; type: in vivo
Description: as §1
Tumor-bearing mice were injected with ^111In-tetrazine 28 (21 μg/75 μL per mouse, 20-50 MBq) 3 or 4 days after receiving 100 μg of a CC49-TCO construct without PEG10 spacer. Approximately 1 h later, the mice were anesthetized and positioned on an animal bed equipped with a nose cone for anesthesia and a sensor for respiratory monitoring. Single photon emission computed tomography (SPECT) was performed 2 h post tetrazine injection with a four-headed multi-pinhole small animal SPECT/CT imaging system (NanoSPECT, Bioscan Inc.). The SPECT acquisition (1 h total) was performed with 1.4 mm diameter pinholes and a 120-140 sec acquisition time per view (24 projections). The energy window for ^111In was set at 245 keV±15% and 171 keV±20%. Two-to-four days after the first scan, the mice were euthanized by anesthesia overdose and a second SPECT/CT scan was acquired overnight. Prior to each SPECT session a CT scan (2 sec per projection, 360 projections) was performed to obtain anatomical information on radioactivity distribution. After the acquisition, the data was reconstructed iteratively with the manufacturer's software (InVivoScope 1.39, patch 1). Regions of interest (ROIs) were drawn manually in triplicate for tumor, liver, kidney and thigh muscle. A phantom filled with a known amount of ^111In was used to calibrate the scanner for tissue radioactivity quantification. The image of three mice injected with CC49-TCO-O minor (CC49-20b), CC49-TCO-O major (CC49-20a) and CC49-TCO-C minor (CC49-14b) on a representative time scale are depicted in FIG. 13 A-C, respectively.
FIG. 13: (left) SPECT/CT projections of live mice 2 h after injection of ^111In-tetrazine 28 (21 μg/75 μL per mouse, ca. 40 MBq), 3-4 days after the administration of (A) CC49-TCO-O minor (CC49-20b), (B) CC49-TCO-O major (CC49-20a) or (C) CC49-TCO-C minor (CC49-14b) (100 μg/100 μL per mouse). (Right), post mortem SPECT/CT scans of the same mice 2-4 days after the first imaging session. White arrows indicate tumors.

[3] = test system: LS174T tumor model; assay: Tumor targeting of CC49-TCO (20b) constructs; type: in vivo, Nude female Balb/C mice; details: 3 h post-injection
Description: as §1
[…] The mice that received ^125I—CC49 were sacrificed 4 days post mAb injection. The mice that received ^125I—CC49-TCO 20b were injected with ^111In-DOTA-tetrazine 28 at 72 h post-mAb injection (25 eq. with respect to mAb, ca. 0.8 MBq) and were sacrificed 3 h after tetrazine injection. At the time of sacrifice, blood was collected by heart puncture and organs and tissues of interest were harvested, blotted dry, weighed and added with 1 mL PBS. The radioactivity in all samples was measured in a gamma-counter (Wizard 3, Perkin Elmer) with a dual-isotope protocol (energy windows set to 10-80 keV and 100-510 keV for ^125I and ^111In, respectively) along with standards to determine the percent injected dose per gram tissue (% ID/g).

[4] = 1 day pretargeting with CC49-14b
[5] = 1 day pretargeting with CC49-20a
[6] = 1 day pretargeting with CC49-20b
[7] = 3 days pretargeting with CC49-14b
[8] = 3 days pretargeting with CC49-20a
[9] = 3 days pretargeting with CC49-20b
[10] = mice pretreated with CC49-TCO(8.5) 72 h before
[11] = mice pretreated with CC49-TCO(12.7) 72 h before
[12] = mice pretreated with CC49-TCO(18.2) 72 h before

O=C([O-])CN1CCN(CC(=O)[O-])CCN(CC(=O)NCCOCCOCCOCCOCCOCCOCCOCCOCCOCCOCCOCCNC(=O)CCCC(=O)Nc2ccc(-c3nnc(-c4ccccn4)nn3)nc2)CCN(CC(=O)[O-])CC1.[111In+3] [^111In-tetrazine 28]
^111In-tetrazine in Blood [1, 4]: 1.12 ± 0.09 % ID/gram
^111In-tetrazine in Bone [1, 4]: 0.27 ± 0.08 % ID/gram
^111In-tetrazine in Brain [1, 4]: 0.05 ± 0.01 % ID/gram
^111In-tetrazine in Heart [1, 4]: 0.46 ± 0.12 % ID/gram
^111In-tetrazine in Kidney [1, 4]: 3.12 ± 0.33 % ID/gram
^111In-tetrazine in Liver [1, 4]: 1.17 ± 0.35 % ID/gram
^111In-tetrazine in Lung [1, 4]: 0.79 ± 0.24 % ID/gram
^111In-tetrazine in Muscle [1, 4]: 0.22 ± 0.07 % ID/gram
^111In-tetrazine in Spleen [1, 4]: 0.53 ± 0.14 % ID/gram
^111In-tetrazine in Tumor [1, 4]: 2.59 ± 0.35 % ID/gram
^111In-tetrazine in Blood [1, 5]: 2.39 ± 1.77 % ID/gram
^111In-tetrazine in Bone [1, 5]: 0.33 ± 0.16 % ID/gram
^111In-tetrazine in Brain [1, 5]: 0.10 ± 0.06 % ID/gram
^111In-tetrazine in Heart [1, 5]: 0.84 ± 0.71 % ID/gram
^111In-tetrazine in Kidney [1, 5]: 2.84 ± 0.35 % ID/gram
^111In-tetrazine in Liver [1, 5]: 2.05 ± 1.03 % ID/gram
^111In-tetrazine in Lung [1, 5]: 1.13 ± 0.55 % ID/gram
^111In-tetrazine in Muscle [1, 5]: 0.33 ± 0.22 % ID/gram
^111In-tetrazine in Spleen [1, 5]: 0.83 ± 0.46 % ID/gram
^111In-tetrazine in Tumor [1, 5]: 2.40 ± 0.16 % ID/gram
^111In-tetrazine in Blood [1, 6]: 1.61 ± 0.45 % ID/gram
^111In-tetrazine in Bone [1, 6]: 0.40 ± 0.05 % ID/gram
^111In-tetrazine in Brain [1, 6]: 0.07 ± 0.01 % ID/gram
^111In-tetrazine in Heart [1, 6]: 0.50 ± 0.04 % ID/gram
^111In-tetrazine in Kidney [1, 6]: 3.39 ± 0.84 % ID/gram
^111In-tetrazine in Liver [1, 6]: 1.41 ± 0.45 % ID/gram
^111In-tetrazine in Lung [1, 6]: 0.97 ± 0.16 % ID/gram
^111In-tetrazine in Muscle [1, 6]: 0.24 ± 0.06 % ID/gram
^111In-tetrazine in Spleen [1, 6]: 0.65 ± 0.12 % ID/gram
^111In-tetrazine in Tumor [1, 6]: 3.42 ± 0.40 % ID/gram
^111In-tetrazine in Blood [1, 7]: 0.54 ± 0.11 % ID/gram
^111In-tetrazine in Bone [1, 7]: 0.20 ± 0.07 % ID/gram
^111In-tetrazine in Brain [1, 7]: 0.03 ± 0.01 % ID/gram
^111In-tetrazine in Heart [1, 7]: 0.24 ± 0.07 % ID/gram
^111In-tetrazine in Kidney [1, 7]: 2.82 ± 0.28 % ID/gram
^111In-tetrazine in Liver [1, 7]: 0.84 ± 0.21 % ID/gram
^111In-tetrazine in Lung [1, 7]: 0.50 ± 0.11 % ID/gram
^111In-tetrazine in Muscle [1, 7]: 0.16 ± 0.04 % ID/gram
^111In-tetrazine in Spleen [1, 7]: 0.34 ± 0.09 % ID/gram
^111In-tetrazine in Tumor [1, 7]: 2.76 ± 1.36 % ID/gram
^111In-tetrazine in Blood [1, 8]: 0.79 ± 0.39 % ID/gram
^111In-tetrazine in Bone [1, 8]: 0.15 ± 0.00 % ID/gram
^111In-tetrazine in Brain [1, 8]: 0.26 ± 0.11 % ID/gram
^111In-tetrazine in Heart [1, 8]: 0.30 ± 0.03 % ID/gram
^111In-tetrazine in Kidney [1, 8]: 3.16 ± 0.57 % ID/gram
^111In-tetrazine in Liver [1, 8]: 0.88 ± 0.13 % ID/gram
^111In-tetrazine in Lung [1, 8]: 0.58 ± 0.07 % ID/gram
^111In-tetrazine in Muscle [1, 8]: 0.21 ± 0.02 % ID/gram
^111In-tetrazine in Spleen [1, 8]: 0.43 ± 0.03 % ID/gram
^111In-tetrazine in Tumor [1, 8]: 3.11 ± 0.80 % ID/gram
^111In-tetrazine in Blood [1, 9]: 0.59 ± 0.10 % ID/gram
^111In-tetrazine in Bone [1, 9]: 0.16 ± 0.02 % ID/gram
^111In-tetrazine in Brain [1, 9]: 0.03 ± 0.01 % ID/gram
^111In-tetrazine in Heart [1, 9]: 0.22 ± 0.03 % ID/gram
^111In-tetrazine in Kidney [1, 9]: 2.59 ± 0.24 % ID/gram
^111In-tetrazine in Liver [1, 9]: 0.64 ± 0.06 % ID/gram
^111In-tetrazine in Lung [1, 9]: 0.46 ± 0.07 % ID/gram
^111In-tetrazine in Muscle [1, 9]: 0.18 ± 0.09 % ID/gram
^111In-tetrazine in Spleen [1, 9]: 0.35 ± 0.08 % ID/gram
^111In-tetrazine in Tumor [1, 9]: 2.56 ± 0.65 % ID/gram
^111In-tetrazine uptake in tumor (SPECT/CT) ([2]; 3 days after pre-treatment with CC49-TCO-O (both major and minor forms)): high ^111In-tetrazine uptake in tumor
radioactivity uptake (SPECT/CT) ([2]; after the administration of CC49-TCO-C minor, 4 days delay between the two treatments): rather low radioactivity uptake
signal in the tumor at late scan (SPECT/CT) ([2]; mice given CC49-TCO-C minor, 2 days after the early scan): still present
tumor radioactivity at late scan (SPECT/CT) ([2]; mice pre-treated with CC49-TCO 0, 72-96 h after ^111In-tetrazine injection): still highly radioactive
^111In-tetrazine 28 in Blood [3, 10]: 0.45 ± 0.14 % ID/g
^111In-tetrazine 28 in Bone [3, 10]: 0.10 ± 0.03 % ID/g
^111In-tetrazine 28 in Brain [3, 10]: 0.02 ± 0.01 % ID/g
^111In-tetrazine 28 in Heart [3, 10]: 0.16 ± 0.03 % ID/g
^111In-tetrazine 28 in Kidney [3, 10]: 1.64 ± 0.28 % ID/g
^111In-tetrazine 28 in Liver [3, 10]: 0.44 ± 0.12 % ID/g
^111In-tetrazine 28 in Lung [3, 10]: 0.42 ± 0.06 % ID/g
^111In-tetrazine 28 in Muscle [3, 10]: 0.11 ± 0.05 % ID/g
^111In-tetrazine 28 in Spleen [3, 10]: 0.25 ± 0.05 % ID/g
^111In-tetrazine 28 in Tumor [3, 10]: 3.72 ± 1.45 % ID/g
^111In-tetrazine 28 in Blood [3, 11]: 0.37 ± 0.28 % ID/g
^111In-tetrazine 28 in Bone [3, 11]: 0.08 ± 0.02 % ID/g
^111In-tetrazine 28 in Brain [3, 11]: 0.01 ± 0.01 % ID/g
^111In-tetrazine 28 in Heart [3, 11]: 0.13 ± 0.05 % ID/g
^111In-tetrazine 28 in Kidney [3, 11]: 1.25 ± 0.24 % ID/g
^111In-tetrazine 28 in Liver [3, 11]: 0.29 ± 0.12 % ID/g
^111In-tetrazine 28 in Lung [3, 11]: 0.34 ± 0.10 % ID/g
^111In-tetrazine 28 in Muscle [3, 11]: 0.05 ± 0.00 % ID/g
^111In-tetrazine 28 in Spleen [3, 11]: 0.20 ± 0.06 % ID/g
^111In-tetrazine 28 in Tumor [3, 11]: 3.36 ± 1.69 % ID/g
^111In-tetrazine 28 in Blood [3, 12]: 0.12 ± 0.03 % ID/g
^111In-tetrazine 28 in Bone [3, 12]: 0.10 ± 0.02 % ID/g
^111In-tetrazine 28 in Brain [3, 12]: 0.04 ± 0.05 % ID/g
^111In-tetrazine 28 in Heart [3, 12]: 0.09 ± 0.03 % ID/g
^111In-tetrazine 28 in Kidney [3, 12]: 2.15 ± 0.17 % ID/g
^111In-tetrazine 28 in Liver [3, 12]: 0.26 ± 0.05 % ID/g
^111In-tetrazine 28 in Lung [3, 12]: 0.29 ± 0.01 % ID/g
^111In-tetrazine 28 in Muscle [3, 12]: 0.29 ± 0.43 % ID/g
^111In-tetrazine 28 in Spleen [3, 12]: 0.20 ± 0.02 % ID/g
^111In-tetrazine 28 in Tumor [3, 12]: 1.21 ± 0.22 % ID/g
